Source: patent publication US4649157A, “Pharmaceutical compositions containing 5-phenyl-1,3-dioxoalkenyl compounds” (G. D. Searle & Co., priority 1986, dated 1987)

The compounds below were run on Leukotriene C4 (LTC4) and leukotriene D4 (LTD4) biosynthesis by cultured rat basophilic leukemia cells (RBL-1 cells) (assay: Inhibition of leukotriene biosynthesis (LTC4 and LTD4, ionophore-induced) in cultured RBL-1 cells, quantitated by radioimmunoassay). Conditions: LTC4 equivalents by [3H]-RIA.
Format: cell-based
Protocol: Leukotriene C4 (LTC4) and leukotriene D4 (LTD4) biosynthesis by cultured rat basophilic leukemia cells (RBL-1 cells) was induced by incubation of the cells with an ionophore. See B. A. Jakschik, S. Falkenheim, and C. W. Parker, "Precursor Role of Arachidonic Acid in Release of Slow Reacting Substance from Rat Basophilic Leukemia Cells," Proc Natl. Acad. Sci. U.S.A., 74, 4577-4581 (1977). The LTC4 and LTD4 biosynthesis was quantitated at LTC4 equivalents by radioimmunoassay using the Leukotriene C4 [^3 H]-RIA Kit available commercially from New England Nuclear, 549 Albany Street, Boston, Mass. Compounds were screened initially at 10^-4 M or 10^-5 M and compared with nordihydroguaiaretic acid (the reference standard). A compound inhibiting leukotriene synthesis at any given concentration by at least 30% relative to the reference standard was considered active. […] Table A lists IC50 's for representative compounds of this invention.

SMILES | IC50 [µM]
CCOC(=O)CC(=O)C=Cc1ccc(OC)cc1 [Example 23, ethyl 5-(4-methoxyphenyl)-3-oxo-4-pentenoate] | 67
CCOC(=O)CC(=O)C=Cc1cccc(Oc2ccccc2)c1 [Example 20, ethyl 3-oxo-5-(3-phenoxyphenyl)-4-pentenoate] | 27
CCOC(=O)CC(=O)C=Cc1cccc(Oc2ccc(Cl)cc2)c1 [Example 21, ethyl 5-[3-(4-chlorophenoxy)phenyl]-3-oxo-4-pentenoate] | 26.5
CCOC(=O)CC(=O)C=Cc1cccc2ccccc12 [Example 27, ethyl 5-(1-naphthyl)-3-oxo-4-pentenoate] | 27.2
CCOC(=O)CC(=O)C=Cc1ccccc1 [Example 1, ethyl 3-oxo-5-phenyl-4-pentenoate] | 20
